Test results reported in US20130123358A1, “Metabolic Benefits to Butyrate as a Chronic Diet Supplement” (priority 2009, published 2013).
Values belong to the compound of their own block, whether it stands above or below them.

Key:
HDAC [1] = test: Histone Deacetylase Assay Kit, inhibition by butyrate isoforms; details: Histone Deacetylase Assay Kit (Upstate), FIG. 8
Text: Several isoforms of butyrate were purchased (Sigma Aldrich Chemicals, St. Louis, Mo.) and tested for inhibitory activity of HDAC, using a Histone Deacetylase Assay Kit (Upstate Biotechnology, Lake Placid, N.Y.).

HDAC [2] = test: Histone deacetylase assay on muscle nuclear extracts of treated mice; type: in vivo, mouse; details: TSA-treated mice on HFD, positive control
Experimental: Histone deacetylase assay were conducted according to the instruction from the manufacturer (#17-320, Upstate). Briefly, 10 ug of muscle nuclear extract (as an enzyme) was incubated with [3H]-acetyl CoA (#TRK688, Amersham) radio labeled histone H4 peptide (25,000 CPM, as a substrate) at 37° C. for 12 hours by shaking Released [3H]-acetate was measured using a scintillation counter. The nuclear extract was prepared according to a protocol described elsewhere (17). The muscle tissues were collected and snap-frozen in liquid nitrogen within 2 min of cervical dislocation of mice. Tissue samples were stored at −80° C. until further processing. The muscle sample of 200˜300 mg was cut into small pieces on dry ice and homogenized in 1 ml of lysate buffer. After centrifugation at 10,000 rpm for 1 minute at 4° C., the nucleus was pelleted and collected. After being washed, the nucleus pellet was treated with extraction buffer. The supernatant was collected for nuclear protein after centrifugation at 14,000 rpm for 5 minutes at 4° C.
Without wishing to be bound by this theory, one activity of butyrate could be related to inhibition of HDAC. Sodium butyrate inhibits the class I and class II histone deacetylases (HDACs). To test this possibility, HDAC activity was examined in the skeletal muscle of mice at 16 weeks on HFD (FIG. 7G). The assay was conducted with the nuclear extracts of muscle samples. […]

[3] = system: C57BL/6J mice on high fat diet; test: TSA in HFD-fed mice (body weight, ITT, insulin signaling, muscle fiber); type: in vivo, mouse; details: TSA 0.6 ug/kg/day i.p.
Experimental: Sodium butyrate was administrated through dietary supplementation. Sodium butyrate (#303410, Sigma) was incorporated into the HFD evenly through blending the diet and sodium butyrate together at 400 rpm in a food processor. Sodium butyrate (50 g) was used in 1 kg diet to reach a dose of 5% w/w. The sodium butyrate containing diet was pelleted and stored in a −20° C. freezer. Trichostatin A (TSA) (T-1052, A.G. Scientific Inc. San Diego, Calif.) was dissolved in DMSO, and diluted in 0.9% saline at 2:98 ratio. The TSA solution (200 ul) was administrated by intra-peritoneal (i.p.) injection to reach a dose of […]. The control mice were administrated with the same volume of vehicle. 50 ml of tributyrin (#113026, Sigma) was incorporated into one kilogram of Chow diet in powder to reach a dose of 5% w/w in mice.
Trichostatin A (TSA) is a well-established HDAC inhibitor that is frequently used in the study of HDACs. The data presented above indicate that the metabolic activity of butyrate may be in part related to inhibition of HDACs. TSA activity was examined in the same model of murine obesity. TSA was administrated through daily i.p. injection during HFD feeding to C57BL/6J mice. The control mice were injected with an identical volume of PBS.
The mice at 5 weeks in age were fed HFD to induce obesity, and TSA was administrated at the dose of 0.6 ug/kg/day. The effects of TSA treatment were tested after 12-13 weeks. […] FIG. 11C indicates the insulin signaling in the gastrocnemius muscle. The muscle was isolated after insulin (0.75 U/kg) injection for 30 minutes and used to prepare whole cell lysate for immunoblot. IRS-1 and Akt were examined for tyrosine (Y632) and serine (S473) phosphorylation.
In addition, the vastus laterais muscle was isolated from the mice at 13 weeks on HFD, and used to make serial cryostat sections of muscle. The muscle slides made from vastus lateralis, gastrocnemius (gastr.) and soleus muscle were stained with antibody against the type I myosin heavy chain in the oxidative fiber. The photograph was taken at 20× magnification. The whole cell lysate was prepared from gastrocnemius muscle and analyzed in an immunoblot. PGC-1α, type I myosin heavy chain (Myosin) and myoglobin were blotted with specific antibodies, and the results shown in FIG. 11D. The results in FIGS. 11A-11D are the mean±SE (n=8 in each group). *P<0.05 (vs. control).

[4] = system: C57BL/6J mice on chow diet; test: Amyl butyrate in mice on chow diet for 4 months; type: in vivo, mouse; details: amyl butyrate 5 g/kg BW/day in chow diet
Experimental: Amyl butyrate was administrated at 5 g/kg BW/day in C57BL/6J mice for 4 months. The amyl butyrate was added to the chow diet. […] FIGS. 14B and 14C show the body fat and muscle content measured by NMR as described above. […] In FIGS. 14A-14E, values are the mean±SE (n=7). *P<0.05, **P<0.001 compared to the control by Student's t test.

ob/ob mice = test: Tributyrin in ob/ob genetically obese mice; type: in vivo, mouse; details: tributyrin 5 g/kg body weight/day in chow diet
Experimental: Male C57BL/6J (4 weeks in age) and ob/ob mice (4 weeks in age) were purchased from the Jackson Laboratory (Bar Harbor, Me.). After one week quarantine, the C57BL/6J mice were fed on the high fat diet (HFD, D12331, Research Diets, New Brunswick, N.J.), which contains 58% calories in fat. The ob/ob mice were fed on Chow diet (5001, Lab Diet) that contains 13.4% calories in fat. All of the mice were housed in the animal facility with a 12:12-h light-dark cycle and constant temperature (22-24° C.). The mice were free to access water and diet. All procedures were performed in accordance with National Institute of Health guidelines for the care and use of animals and approved by the Institute Animal Care and Use Committee at the Pennington Biomedical Research Center.
Sodium butyrate was administrated through dietary supplementation. Sodium butyrate (#303410, Sigma) was incorporated into the HFD evenly through blending the diet and sodium butyrate together at 400 rpm in a food processor. Sodium butyrate (50 g) was used in 1 kg diet to reach a dose of 5% w/w. The sodium butyrate containing diet was pelleted and stored in a −20° C. freezer. […]
To test effect of different forms of butyric acid, tributyrin was used in the ob/ob genetically obese mice model. […] After 2 weeks, body weight was measured and an insulin tolerance test was given. […]

SMILES: CC(/C=C/C(=O)NO)=C\[C@@H](C)C(=O)c1ccc(N(C)C)cc1 [TSA, Trichostatin A]
- HDAC activity in skeletal muscle (HDAC [2]): decreased
- body weight, less than control ([3]; 12 weeks on HFD): 16%
- insulin tolerance (ITT) ([3]; 12 weeks on HFD, 4 hour fast): significantly improved
- expression of type I myosin heavy chain in gastrocnemius and soleus (histology) ([3]; 13 weeks on HFD): increased
- oxidative fiber ratio in skeletal muscle ([3]; 13 weeks on HFD): increased
- insulin-induced signaling (IRS-1 Y632, Akt S473 phosphorylation) in gastrocnemius muscle ([3]; 30 minutes after insulin 0.75 U/kg): significantly improved
- PGC-1α protein in gastrocnemius muscle ([3]; immunoblot): all increased
- myoglobin protein in gastrocnemius muscle ([3]; immunoblot): all increased
- type I myosin heavy chain protein in gastrocnemius muscle ([3]; immunoblot): all increased

SMILES: CCCC(=O)OC(C)c1ccccc1 (stereo not shown) [a-methylbenzyl butyrate]
- inhibitory activity of HDAC (HDAC [1]): inhibited HDAC

SMILES: CCCC(=O)OC [methyl butyrate]
- inhibitory activity of HDAC (HDAC [1]): inhibited HDAC

SMILES: CCCC(=O)OCCc1ccccc1 [pennetyl butyrate]
- inhibitory activity of HDAC (HDAC [1]): inhibited HDAC

SMILES: CCCC(=O)OCC(COC(=O)CCC)OC(=O)CCC [tributyrin]
- weight gain (ob/ob mice; 2 weeks, vs control): significantly reduced
- insulin sensitivity (ITT) (ob/ob mice; 4 hours fasting): preserved

Now from value to compound, other results behind:

- inhibitory activity of HDAC (HDAC [1]): inhibited HDAC
SMILES: CC(C)C(O)C(=O)O (stereo not shown) [2-hydroxy-3-methylbutanoic acid]

- inhibitory activity of HDAC (HDAC [1]): inhibited HDAC
SMILES: CCCCCOC(=O)CCC [amyl butyrate]
- body weight gain [4]: prevented body weight gain
- insulin resistance (fasting glucose and ITT) [4]: protected the mice from insulin resistance
- body fat gain ([4]; NMR): prevented fat gain
- lean body mass ([4]; NMR): without affecting lean body mass

- inhibitory activity of HDAC (HDAC [1]): inhibited HDAC
SMILES: CCCC(=O)OCc1ccccc1 [benzyl butyrate]

- inhibitory activity of HDAC (HDAC [1]): inhibited HDAC
SMILES: CCCCOC(=O)CCC [butyl butyrate]

- inhibitory activity of HDAC (HDAC [1]): inhibited HDAC
SMILES: CCCCCCCOC(=O)CCC [heptyl butyrate]

- inhibitory activity of HDAC (HDAC [1]): inhibited HDAC
SMILES: CCCCCCOC(=O)CCC [hexyl butyrate]

- inhibitory activity of HDAC (HDAC [1]): inhibited HDAC
SMILES: CCCC(=O)OCC(C)C [isobutyl butyrate]
